Test results published in the NIST ThermoML archive (doi:10.1021/je0501890).

Experiment: xn = mol fraction of the nth substance listed
Details: 101.33 kPa, Liquid

ClC(Cl)=C(Cl)Cl [tetrachloroethene] + CCCCCCCO
Details	mass density, 293.15 K [kg/m3]	mass density, 298.15 K [kg/m3]	mass density, 303.15 K [kg/m3]	viscosity, 293.15 K [mPa·s]	viscosity, 298.15 K [mPa·s]	viscosity, 303.15 K [mPa·s]
x2 = 0.0564	1560.55	1552.56	1544.51	–	–	–
x2 = 0.098	1516.9	1509.2	1501.4	–	–	–
x2 = 0.1052	–	–	–	1.064	0.993	0.961
x2 = 0.152	1462.26	1454.91	1447.45	–	–	–
x2 = 0.2	–	–	–	1.285	1.186	1.116
x2 = 0.2001	1415.53	1408.42	1401.24	–	–	–
x2 = 0.248	1370.53	1363.81	1356.93	–	–	–
x2 = 0.2939	–	–	–	1.569	1.441	1.321
x2 = 0.2944	1328.47	1321.91	1315.32	–	–	–
x2 = 0.3527	1277.56	1271.32	1265.06	–	–	–
x2 = 0.3983	1239.09	1233.07	1227.04	–	–	–
x2 = 0.4073	–	–	–	2.024	1.83	1.661
x2 = 0.4484	1198.21	1192.43	1186.64	–	–	–
x2 = 0.4612	–	–	–	2.292	2.05	1.851
x2 = 0.4982	–	–	–	2.509	2.231	2.002
x2 = 0.5051	1153.53	1148.07	1142.54	–	–	–
x2 = 0.5477	1121.03	1115.76	1110.45	–	–	–
x2 = 0.55	–	–	–	2.827	2.501	2.222
x2 = 0.5992	–	–	–	3.169	2.798	2.462
x2 = 0.6002	1082.09	1077.06	1071.96	–	–	–
x2 = 0.6503	1046.14	1041.3	1036.45	–	–	–
x2 = 0.6926	–	–	–	3.922	3.397	2.958
x2 = 0.7419	983.09	978.66	974.19	–	–	–
x2 = 0.8016	943.84	939.63	935.38	–	–	–
x2 = 0.8034	–	–	–	4.966	4.249	3.631
x2 = 0.8533	910.96	906.93	902.87	–	–	–
x2 = 0.8578	–	–	–	5.52	4.704	4.03
x2 = 0.8961	–	–	–	5.942	5.052	4.324
x2 = 0.8963	884.26	880.43	876.54	–	–	–
x2 = 0.9453	854.68	851.01	847.3	–	–	–
